Entries after “also recorded” stand apart in the source; their conditions may differ.
Assays:
[1] = system: patient 780 virus (RT K103N, P225H); assay: Phenotypic susceptibility assay (patient virus); type: cell-based, HIV; details: patient 780, FIGS. 8D-8F
Excerpt: FIGS. 8D, 8E, and 8F. Phenotypic Drug Susceptibility and Resistance Profile: Patients 780. This is a second example of the third pattern of NNRTI susceptibility/resistance. […] This pattern is characterized by a larger reduction of nevirapine suseptibility compared to the reduction of delavirdine susceptibility.
(§1) The resistance test vectors containing a functional luciferase gene cassette were constructed and host cells were transfected with the resistance test vector DNA. […] The IC50 values were determined by plotting percent drug inhibition vs. log10 drug concentration.
(§2) Host cells were seeded in 10-cm-diameter dishes and were transfected several days after plating with resistance test vector plasmid DNA and the envelope expression vector. […] HIV capsid protein (p24) levels in the harvested cell culture media were determined by an EIA method as described by the manufacturer (SIAC; Frederick, Md.). […] The inhibitory effect of the drug was determined using the following equation: % luciferase inhibition=1−(RLUluc [drug]÷RLUluc)×100 where RLUluc [drug] is the relative light unit of luciferase activity in infected cells in the presence of drug and RLUluc is the Relative Light Unit of luciferase activity in infected cells in the absence of drug. […]

[2] = system: G190S-RTV and G190A-RTV (mutation at codon 190); assay: Phenotypic susceptibility assay (site directed mutant RTV); type: cell-based, HIV-1; details: G190A or G190S vs wild type reference RTV; also statements on codon 190 alone or with 103/101
Description: as §1, with “DNA. The resistant test vectors contained patient-derived reverse transcriptase and protease sequences that were either susceptible or resistant to the antiretroviral agents, such as nucleoside reverse transcriptase inhibitors, non-nucleoside reverse transcriptase inhibitors and protease inhibitors.” for “DNA.”
as §2

[3] = system: RTV-1057, patient 98-1057 (RT A98G, Y181C); assay: Phenotypic susceptibility assay (patient RTV); type: cell-based, HIV-1; details: patient RTV pool
Description: as §1, with “DNA. The resistant test vectors contained patient-derived reverse transcriptase and protease sequences that were either susceptible or resistant to the antiretroviral agents, such as nucleoside reverse transcriptase inhibitors, non-nucleoside reverse transcriptase inhibitors and protease inhibitors.” for “DNA.”
as §2

[4] = system: RTV-1058 clone 5 (RT L100I, K103N); assay: Phenotypic susceptibility assay (patient RTV clone); type: cell-based, HIV-1
Excerpt: The resistance test vectors containing a functional luciferase gene cassette were constructed and host cells were transfected with the resistance test vector DNA. The resistant test vectors contained patient-derived reverse transcriptase and protease sequences that were either susceptible or resistant to the antiretroviral agents, such as nucleoside reverse transcriptase inhibitors, non-nucleoside reverse transcriptase inhibitors and protease inhibitors. The resistance test vector viral particles produced by transfecting the resistance test vector DNA into host cells, either in the presence or absence of protease inhibitors, were used to infect target host cells grown either in the absence of NRTI or NNRTI or in the presence of increasing concentrations of the drug. The amount of luciferase activity produced in infected target host cells in the presence of drug was compared to the amount of luciferase produced in infected target host cells in the absence of drug. Drug resistance was measured as the amount of drug required to inhibit by 50% the luciferase activity detected in the absence of drug (inhibitory concentration 50%, IC50). The IC50 values were determined by plotting percent drug inhibition vs. log10 drug concentration.
Host cells were seeded in 10-cm-diameter dishes and were transfected several days after plating with resistance test vector plasmid DNA and the envelope expression vector. Transfections were performed using a calcium-phosphate precipitation procedure. The cell culture media containing the DNA precipitate was replaced with fresh medium, from one to 24 hours, after transfection. Cell culture media containing resistance test vector viral particles was harvested one to four days after transfection and was passed through a […] filter before being stored at […]. HIV capsid protein (p24) levels in the harvested cell culture media were determined by an EIA method as described by the manufacturer (SIAC; Frederick, Md.). Before infection, target cells (293 and 293/T) were plated in cell culture media. Control infections were performed using cell culture media from mock transfections (no DNA) or transfections containing the resistance test vector plasmid DNA without the envelope expression plasmid. One to three or more days after infection the media was removed and cell lysis buffer (Promega) was added to each well. Cell lysates were assayed for luciferase activity (FIG. 3). The inhibitory effect of the drug was determined using the following equation: % luciferase inhibition=1−(RLUluc [drug]÷RLUluc)×100 where RLUluc [drug] is the relative light unit of luciferase activity in infected cells in the presence of drug and RLUluc is the Relative Light Unit of luciferase activity in infected cells in the absence of drug. IC50 values were obtained from the sigmoidal curves that were generated from the data by plotting the percent inhibition of luciferase activity vs. the log10 drug concentration. The drug inhibition curves are shown in (FIG. 3).
A resistance test vector was constructed as described in Example 1 from a patient sample designated 98-1058. This patient had been previously treated with ddI, d4T, AZT, 3TC, ddC and abacavir (NRTIs), indinavir and amprenavir (PRIs) and nevirapine (an NNRTI). Isolation of viral RNA and RT/PCR was used to generate a patient derived segment that comprised viral sequences coding for all of RP and aa 1-313 of RT. The PDS was inserted into an indicator gene viral vector to generate a resistance test vector designated RTV-1058. Individual clones of RTV-1058 were selected and were then tested in a phenotypic assay to determine accurately and quantitatively the level of susceptibility to a panel of anti-retroviral drugs. The panel of antiretroviral drugs comprised members of the classes known as NRTIs (AZT, 3TC, d4T, kkI an ddC), NNRTIs (delavirdine and nevirapine), an PRIs (indinavir, nelfinavir, ritonavir, and saquinavir). […]

[5] = system: patient 487 virus (RT M184V, K103N); assay: Phenotypic susceptibility assay (patient virus); type: cell-based, HIV; details: patient 487, FIG. 4
Excerpt: Phenotypic drug susceptibility and resistance profile: patient 487. […] This is an example of the first pattern of NNRTI susceptibility/resistance.
as §1, with “DNA. The resistant test vectors contained patient-derived reverse transcriptase and protease sequences that were either susceptible or resistant to the antiretroviral agents, such as nucleoside reverse transcriptase inhibitors, non-nucleoside reverse transcriptase inhibitors and protease inhibitors.” for “DNA.”
as §2

[6] = system: RTV-675, patient 98-675 (RT A98G); assay: Phenotypic susceptibility assay (patient RTV); type: cell-based, HIV-1; details: patient RTV pool
Description: as §1, with “DNA. The resistant test vectors contained patient-derived reverse transcriptase and protease sequences that were either susceptible or resistant to the antiretroviral agents, such as nucleoside reverse transcriptase inhibitors, non-nucleoside reverse transcriptase inhibitors and protease inhibitors.” for “DNA.”
as §2

## CC(C)Nc1cccnc1N1CCN(C(=O)c2cc3cc(NS(C)(=O)=O)ccc3[nH]2)CC1 [delavirdine]
[1]
  change in susceptibility: reduced susceptibility
[2]
  change in susceptibility: slightly more susceptible; also recorded: slightly increase susceptibility; also recorded: slight increase
[3]
  decrease in susceptibility (fold, IC50): 35 fold
[4]
  loss of susceptibility (fold, IC50): 250 fold
[5]
  change in susceptibility: increased resistance
[6]
  decrease in susceptibility (fold, IC50): 2.1 fold

## Cc1ccnc2c1NC(=O)c1cccnc1N2C1CC1 [nevirapine]
[1]
  change in susceptibility: reduced susceptibility
[2]
  change in susceptibility: markedly less susceptible; also recorded: greatly reduce susceptibility; also recorded: large decrease
[3]
  decrease in susceptibility (fold, IC50): 610 fold
[4]
  loss of susceptibility (fold, IC50): 120 fold
[5]
  change in susceptibility: increased resistance
[6]
  decrease in susceptibility (fold, IC50): 6 fold
